# Measurements: patent US20060148712A1, “Monocyte chemoattractant activity of galectin-3” (priority 2000, published 2006)
# Tested on: human peripheral blood monocytes
# Experiment: Monocyte migration assay in vitro (96-well micro Boyden chamber)
# Format: cell-based
# Text: Human monocytes were purified from venous blood of normal volunteers essentially as described previously (Nakagawara, et al., J. Clin. Invest. 68:1243-53 (1981)). In brief, after erythrocytes were sedimented by addition of 6% dextran saline solution (I part to 5 parts heparinized blood), the leukocytes were collected, washed twice, and resuspended in Ca^2+ and Mg^2+-free HBSS containing 5% autologous serum. Mononuclear cells were acquired by centrifugation of the leukocyte suspension on Ficoll Paque at 1,500 rpm for 15 min. The cells were resuspended in RPMI 1640 containing 10% autologous serum and allowed to adhere to sterile tissue culture plates for 30 min in a humidified incubator at 5% CO2 and 37° C. After incubation, non-adherent cells were removed by washing the plates three times with PBS at 37° C. […] To detach and harvest the adhered monocytes, 1 mM EDTA-PBS containing 5% serum was added and the plates were incubated on ice for 30 min. The monocytes were washed twice with HBSS and resuspended in RPMI 1640 with 0.1% autologous serum for the migration assay. The viability of monocytes was determined by trypan blue exclusion and was more than 98%. In some experiments, monocytes were purified according to another method using a Percoll discontinuous gradient described previously (Chuluyan & Issekutz, J. Clin. Invest. 92:2768-77 (1993)).
# Monocyte migration was examined by using 96-well micro Boyden chambers with 5 μm-pore size filters (Neuro Probe, Inc., Gaithersburg, Md.) as described previously (Falk, et al., J. Immunol. Meth. 33:239-47 (1980)), Chertov, et al., J. Biol. Chem. 271:2935-40 (1996)). Briefly, after the indicated concentrations of galectin-3 in RPMI 1640 were applied to the lower chambers, purified monocyte suspensions (2.5-5.0×10^4/well) were applied to the upper chambers. After incubation of the chambers for 1 h in a humidified incubator at 5% CO2 and 37° C., the filters were washed once with PBS and processed with Wright stain. The number of monocytes on the bottom side of the filters was counted in 5 to 10 high-power fields. Monocyte migration was calculated from the average numbers of the counted cells and expressed as % of input cells in a well.
# In assays using inhibitory reagents, the purified monocytes were pretreated with or without the indicated concentrations of B2C10 (Liu, et al., Biochemistry 35:[…] (1996)) or anti-DNP IgG1 (Liu, et al., J. Immunol. 124:2728-31 (1980)) as an isotype-matched control mAb, galectin-3C, or PTX at 37° C. for 30 min. Then the cells were applied to the upper chambers in the presence of these inhibitors at the same concentrations used in the pretreatment. In the assays using lactose and sucrose, the sugars were added to the lower chambers at the initiation of the migration assay.
substance,measurement,setting,value
"galectin-3: Recombinant human galectin-3, a 26 kDa beta-galactoside-binding protein (lectin)",Monocyte migration (% of input cells),"10 nM galectin-3, subsequent experiments n=21, control 4.26±1.3%, p<0.001",7.01±2.1%
same,Monocyte migration (% of input cells),"100 nM galectin-3 in lower chamber, n=4 experiments, diluent control 3.54±2.2%",6.25±1.3%
same,Monocyte migration (% of input cells),"300 nM galectin-3 in lower chamber, n=4 experiments, diluent control 3.54±2.2%",9.8±0.33%
same,Monocyte migration with galectin-3 in both chambers,1 μM galectin-3 added to both chambers,no significant increase in monocyte migration over the background
same,Monocyte migration (% of input cells),"1 μM galectin-3 in lower chamber, n=4 experiments, diluent control 3.54±2.2%",12.4±1.2%
same,Effect on monocyte migration compared with MCP-1,1 μM galectin-3 vs MCP-1 at 100 ng/ml (11.6 nM),comparable to that of human recombinant MCP-1
same,Monocyte migration (% migrated cells of the total cells),"checkerboard: galectin-3 above 0 nM, below 10 nM",8.66 ± 0.22%
same,Monocyte migration (% migrated cells of the total cells),"checkerboard: galectin-3 above 0 nM, below 100 nM",9.96 ± 0.72%
same,Monocyte migration (% migrated cells of the total cells),"checkerboard: galectin-3 above 0 nM, below 1000 nM",13.1 ± 1.33%
same,Monocyte migration (% migrated cells of the total cells),"checkerboard: galectin-3 above 10 nM, below 0 nM",7.55 ± 0.79%
same,Monocyte migration (% migrated cells of the total cells),"checkerboard: galectin-3 above 10 nM, below 10 nM",8.88 ± 1.09%
same,Monocyte migration (% migrated cells of the total cells),"checkerboard: galectin-3 above 10 nM, below 100 nM",9.23 ± 2.23%
same,Monocyte migration (% migrated cells of the total cells),"checkerboard: galectin-3 above 10 nM, below 1000 nM",11.5 ± 3.49%
same,Monocyte migration (% migrated cells of the total cells),"checkerboard: galectin-3 above 100 nM, below 0 nM",10.7 ± 0.86%
same,Monocyte migration (% migrated cells of the total cells),"checkerboard: galectin-3 above 100 nM, below 10 nM",11.4 ± 2.11%
same,Monocyte migration (% migrated cells of the total cells),"checkerboard: galectin-3 above 100 nM, below 100 nM",10.5 ± 2.10%
same,Monocyte migration (% migrated cells of the total cells),"checkerboard: galectin-3 above 100 nM, below 1000 nM",12.5 ± 2.87%
same,Monocyte migration (% migrated cells of the total cells),"checkerboard: galectin-3 above 1000 nM, below 0 nM",3.30 ± 2.82%
same,Monocyte migration (% migrated cells of the total cells),"checkerboard: galectin-3 above 1000 nM, below 10 nM",3.25 ± 3.11%
same,Monocyte migration (% migrated cells of the total cells),"checkerboard: galectin-3 above 1000 nM, below 100 nM",4.55 ± 3.69%
same,Monocyte migration (% migrated cells of the total cells),"checkerboard: galectin-3 above 1000 nM, below 1000 nM",3.50 ± 2.41%
same,Nature of the effect on monocytes in vitro,high concentrations (1 μM),chemotactic
same,Nature of the effect on monocytes in vitro,low concentrations (10 and 100 nM),chemokinetic
